How the values were obtained:
Format in all cases: cell-based, human
HeLa cells = system: HeLa cells
HL-60 cells = system: HL-60 cells
Jurkat cells [1] = system: Jurkat cells
Jurkat cells [2] = experiment: Cell morphology and rate of cell growth during prolonged treatment; details: up to 6 weeks
Source text: We have also determined the quantitative and physiological limits to the cell surface expression of reactive functional groups. […] At saturation, we calculated the number of ketones accessible to chemoselective ligation and flow cytometry analysis to be approximately 1.8×10^6 per cell (32). No effects on cell morphology or the rate of cell growth were observed during prolonged (up to 6 weeks) treatment with ManLev.

Jurkat cells [3] = experiment: Normal sialic acid released by sialidase digestion, quantified by HPAEC
Source text: We therefore evaluated the effects of ManLev treatment on the amount of normal sialic acid on Jurkat cells, expecting a reduction.

CC(=O)N[C@@H]1C(O)O[C@H](CO)[C@@H](O)[C@@H]1O (stereo partly drawn) [ManNAc, N-Acetylmannosamine, reference compound]
increase in fluorescence above the background level (ketone expression) (HeLa cells): only a background level of fluorescence | increase in fluorescence above the background level (ketone expression) (HL-60 cells): only a background level of fluorescence | effect on ketone expression resulting from ManLev treatment (Jurkat cells [1]): inhibited | increase in fluorescence above the background level (ketone expression) (Jurkat cells [1]): only a background level of fluorescence

CC(=O)CCC(=O)N[C@@H]1C(O)O[C@H](CO)[C@@H](O)[C@@H]1O (stereo partly drawn) [ManLev, N-levulinoyl mannosamine]
increase in fluorescence above the background level (ketone expression) (HeLa cells): ≤ 30 fold | increase in fluorescence above the background level (ketone expression) (HL-60 cells): ≤ 30 fold | effects on cell morphology or the rate of cell growth (Jurkat cells [2]): No effects | amount of sialic acid released by sialidase digestion, lower than that from ManNAc-treated cells (Jurkat cells [3]): approximately 10 fold | dose dependence of ketone expression (Jurkat cells [1]): dose dependent and saturable | increase in fluorescence above the background level (ketone expression) (Jurkat cells [1]): ≤ 30 fold | number of ketones accessible to chemoselective ligation and flow cytometry analysis (Jurkat cells [1]): approximately 1.8×10^6 per cell

CC(=O)CCC(=O)N[C@H]1C(O)O[C@H](CO)[C@@H](O)[C@@H]1O (stereo partly drawn) [GlcLev, N-levulinoyl glucosamine]
increase in fluorescence above the background level (ketone expression) (Jurkat cells [1]): only background fluorescence

tunicamycin
effect on ketone expression resulting from ManLev treatment (HeLa cells): unaffected | effect on ketone expression resulting from ManLev treatment (HL-60 cells): unaffected | effect on ketone expression resulting from ManLev treatment (Jurkat cells [1]): inhibited by tunicamycin in a dose-dependent fashion

From patent US7351408B2 (priority 1997, dated 2008)
